The target in test [1] is T1, human DGKα (Homo sapiens (Human), UniProt P23743). Put plainly: DGKα LIPGLO assay (extruded liposome substrate, ADP-Glo luminescence). In kind it is biochemical. The note with it: liposome assay; read-out: DGK alpha LIPGLO IC50. A general note: ADP-Glo turns the ADP formed in a reaction into a luminescent signal.
The target in a further test is human DGKζ (Homo sapiens (Human), UniProt Q13574). Put plainly: DGKζ LIPGLO assay (extruded liposome substrate, ADP-Glo luminescence). In kind it is biochemical. The conditions noted are these: liposome assay; read-out: DGK zeta LIPGLO IC50.
human DGKζ, sequence (Q13574 other isoform, or with tags, fused parts or gaps): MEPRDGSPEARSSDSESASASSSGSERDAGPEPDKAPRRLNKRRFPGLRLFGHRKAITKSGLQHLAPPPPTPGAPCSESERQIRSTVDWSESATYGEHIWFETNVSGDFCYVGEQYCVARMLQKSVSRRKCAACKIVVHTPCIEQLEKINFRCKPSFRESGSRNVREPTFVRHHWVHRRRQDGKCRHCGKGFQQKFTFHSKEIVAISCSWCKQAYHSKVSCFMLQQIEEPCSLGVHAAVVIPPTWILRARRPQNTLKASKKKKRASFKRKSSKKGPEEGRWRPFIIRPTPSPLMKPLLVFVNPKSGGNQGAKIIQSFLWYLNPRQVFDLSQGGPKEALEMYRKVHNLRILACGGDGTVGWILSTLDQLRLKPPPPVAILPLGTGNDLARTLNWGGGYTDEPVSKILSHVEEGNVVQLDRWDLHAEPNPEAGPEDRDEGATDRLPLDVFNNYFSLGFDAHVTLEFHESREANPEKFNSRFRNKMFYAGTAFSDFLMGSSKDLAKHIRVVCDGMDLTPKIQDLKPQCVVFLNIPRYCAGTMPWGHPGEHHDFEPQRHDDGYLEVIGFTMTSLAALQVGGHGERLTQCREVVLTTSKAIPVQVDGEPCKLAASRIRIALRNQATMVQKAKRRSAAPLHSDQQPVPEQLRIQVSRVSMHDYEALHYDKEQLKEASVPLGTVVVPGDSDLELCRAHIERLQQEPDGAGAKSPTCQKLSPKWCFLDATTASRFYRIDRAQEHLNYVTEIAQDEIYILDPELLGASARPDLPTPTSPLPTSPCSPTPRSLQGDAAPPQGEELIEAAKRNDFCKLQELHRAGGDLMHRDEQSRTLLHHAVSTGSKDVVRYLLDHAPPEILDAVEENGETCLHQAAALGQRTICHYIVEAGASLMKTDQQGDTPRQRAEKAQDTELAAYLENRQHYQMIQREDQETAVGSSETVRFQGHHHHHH
Test [2] deals with T1, human DGKα. Put plainly: DGKα ADPGLO assay (detergent/lipid micelle substrate). The note with it: truncated DGK alpha; read-out: DGK alpha ADPGLO (Truncated) IC50. In kind it is biochemical. How it is done: DGK Alpha ADPGLO (Truncated) IC50 (uM)
The detergent/lipid micelle was prepared by combining 15 g phosphatidylserine (Avanti 840035P) and 1 g diacylglycerol (8008110) and dissolving into 150 mL chloroform in a 2 L round bottom flask. Chloroform was removed under high vacuum by rotary evaporation. […] The lipid/detergent solution was split into 5 mL aliquots and stored at −80° C.

The subject of test [3] is human venous whole blood (IFN-γ). In words: Human whole blood IFN-γ assay. In kind it is cell-based. The conditions noted are these: whole blood, normalized to 3 μM reference compound as 100% activation, read-out: IFN-γ Whole Blood Normalized EC50. How it is done:
Human venous whole blood (22.5 μL per well), obtained from healthy donors, was pre-treated with compounds for one hour at 37° C. in a humidified 95% air/5% CO2 incubator. The blood was stimulated with 2.5 μL anti-human CD3 and anti-CD28 mAb at a final concentration of 1 μg/mL each for 24 hours at 37° C. IFN-γ in the supernatants was measured using AlphLISA kit (Cat #AL217).

SMILES strings stand for the structures. Like-named read-outs stand apart in the source and are kept apart here.

T1 sequence (P23743 whole entry, looked up): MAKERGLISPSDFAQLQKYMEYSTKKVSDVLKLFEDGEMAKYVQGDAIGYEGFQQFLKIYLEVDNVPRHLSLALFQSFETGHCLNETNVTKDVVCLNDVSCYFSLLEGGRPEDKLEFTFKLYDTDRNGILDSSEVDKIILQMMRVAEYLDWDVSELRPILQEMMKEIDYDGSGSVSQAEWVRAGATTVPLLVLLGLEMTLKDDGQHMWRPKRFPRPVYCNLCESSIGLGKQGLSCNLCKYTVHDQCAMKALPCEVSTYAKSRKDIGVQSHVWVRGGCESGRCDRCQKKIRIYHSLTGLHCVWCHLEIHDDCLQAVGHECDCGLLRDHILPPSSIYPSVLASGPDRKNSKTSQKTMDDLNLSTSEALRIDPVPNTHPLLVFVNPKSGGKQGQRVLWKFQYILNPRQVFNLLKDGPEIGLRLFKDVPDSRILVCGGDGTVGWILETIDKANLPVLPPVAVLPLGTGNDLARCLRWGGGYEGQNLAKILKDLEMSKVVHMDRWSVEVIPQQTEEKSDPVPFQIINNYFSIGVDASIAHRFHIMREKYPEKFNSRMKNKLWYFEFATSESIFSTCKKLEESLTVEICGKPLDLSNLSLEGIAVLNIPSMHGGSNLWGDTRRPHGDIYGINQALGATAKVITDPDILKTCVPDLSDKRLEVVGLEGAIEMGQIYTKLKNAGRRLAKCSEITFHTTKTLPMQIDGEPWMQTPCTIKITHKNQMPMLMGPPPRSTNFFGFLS

As to `CC[C@H]1CN(C(C)c2ccc(C(F)(F)F)cc2F)[C@H](CC)CN1c1nc(=O)n(C)c2ccc(C#N)nc12` (single isomer, unassigned) [Example 25], the IC50 came out at 1230 nM on human DGKα [1], 1340 nM at human DGKζ and 330 nM at human DGKα [2]. Further, the EC50 in test [3] came out at 1250 nM.

In the case of `CCC(c1ccc(C(F)(F)F)cc1)N1C[C@H](C)N(c2nc(=O)n(C)c3ccc(C#N)nc23)C[C@H]1CC` (single isomer, unassigned) [Example 90], the figures for the concentration for half-maximal inhibition (IC50) at human DGKα [1], at human DGKζ and on human DGKα [2] were 120 nM, 590 nM and 140 nM, respectively.

In the case of `CC[C@@H]1CN(c2nc(=O)n(C)c3ccc(C#N)nc23)[C@@H](C)CN1C(c1ccc(F)cc1)c1cccc(C(F)(F)F)n1` (single isomer, unassigned) [Example 66], the figures for the IC50 on human DGKα [1], on human DGKζ and at human DGKα [2] were 230 nM, 110 nM and 2 nM, respectively. In addition, the EC50 in test [3] came to 75 nM.

For the compound `CC[C@@H]1CN(c2nc(=O)n(C)c3ccc(C#N)nc23)[C@@H](C)CN1C(C)c1ccc(OC(F)(F)F)cc1F` (single isomer, unassigned) [Example 82], the concentration for half-maximal inhibition (IC50) on human DGKα [1] amounted to 1540 nM; at human DGKζ, 2450 nM. Also, in test [3], the EC50 came to 530 nM.

Regarding `CCC(c1ccc2c(c1)OC(F)(F)O2)N1C[C@H](C)N(c2nc(=O)n(C)c3ccc(C#N)nc23)C[C@H]1CC` (single isomer, unassigned) [Example 79], the IC50 on human DGKα [1] came out at 300 nM; at human DGKζ it was 23 nM. The EC50 in test [3] (Homo sapiens) turned out to be 300 nM.

With `C[C@@H]1CN(c2nc(=O)n(C)c3ccc(C#N)nc23)[C@@H](C)CN1C(c1ccc(F)cc1)c1nc(C2CC2)no1` (single isomer, unassigned) [Example 106], the IC50 on human DGKα [1] was found to be 39 nM; on human DGKζ it was 130 nM. Besides, the EC50 in test [3] came to 240 nM.

Turning to `CC[C@H]1CN(C(C)c2ccc(OCC3CC3)cc2)[C@H](CC)CN1c1nc(=O)n(C)c2ccc(C#N)nc12` (single isomer, unassigned) [Example 24], the IC50 at human DGKα [1] is 680 nM; on human DGKζ, 630 nM. Further, the EC50 in test [3] stood at 450 nM.

Regarding `CC[C@H]1CN(C(C)c2ccc(C(F)(F)F)cc2)[C@H](CC)CN1c1nc(=O)n(C)c2ccc(C#N)nc12` (single isomer, unassigned) [Example 21], the IC50 at human DGKα [1] amounted to 386 nM; at human DGKζ it was 1010 nM. Besides, in test [3], the EC50 came to 2850 nM.

As for `CC(c1ccc(C(F)(F)F)cc1)N1C[C@H](C)N(c2nc(=O)n(C)c3ccc(C#N)nc23)C[C@H]1C` (single isomer, unassigned) [Example 140], the IC50 was found to be 180 nM at human DGKα [1] and 360 nM on human DGKζ. Also, in test [3], the EC50 came out at 430 nM.

`COC[C@@H]1CN(c2nc(=O)n(C)c3ccc(C#N)nc23)[C@@H](C)CN1C(C)c1ccc(C(F)(F)F)cc1` (single isomer, unassigned) [Example 175]: the IC50 was determined as 980 nM at human DGKα [1] and 830 nM on human DGKζ. Also, the half-maximal effective concentration (EC50) in test [3] worked out at 1690 nM.

In the case of `C[C@@H]1CN(c2nc(=O)n(C)c3ccc(C#N)nc23)[C@@H](C)CN1Cc1ccc(F)c(F)c1` [Example 133, 4-((2 S,5R)-4-(3,4-difluorobenzyl)-2,5-dimethylpiperazin-1-yl)-1-methyl-2-oxo-1,2-dihydropyrido[3,2-d]pyrimidine-6-carbonitrile], the IC50 on human DGKα [1] worked out at 530 nM; at human DGKζ, 240 nM. Besides, the EC50 in test [3] (Homo sapiens) worked out at 710 nM.

Take `CC[C@@H]1CN(c2nc(=O)n(C)c3ccc(C#N)nc23)[C@@H](C)CN1C(C)c1ccc(C2CC2)cc1F` (single isomer, unassigned) [Example 92]: the figures for the IC50 at human DGKα [1] and at human DGKζ were 460 nM and 120 nM, respectively. Also, in test [3], the EC50 is 350 nM.

Consider `C[C@@H]1CN(c2nc(=O)n(C)c3ccc(C#N)nc23)[C@@H](C)CN1C(c1ccc(F)cc1)c1csc(C(F)(F)F)n1` (single isomer, unassigned) [Example 171], for which the IC50 at human DGKα [1] was determined as 1560 nM; at human DGKζ it was 560 nM. In addition, in test [3], the EC50 was determined as 220 nM.

Regarding `CC[C@@H]1CN(c2nc(=O)n(C)c3ccc(C#N)nc23)[C@@H](C)CN1Cc1ccc(OC(F)(F)F)cc1F` [Example 62, 4-((2S,5R)-5-ethyl-4-(2-fluoro-4-(trifluoromethoxy)benzyl)-2-methylpiperazin-1-yl)-1-methyl-2-oxo-1,2-dihydropyrido[3,2-d]pyrimidine-6-carbonitrile], the IC50 on human DGKα [1] was determined as 58 nM; at human DGKζ, 220 nM. For the same compound, in test [3] (Homo sapiens), the 50% effective concentration (EC50) stood at 200 nM.

`CC[C@@H]1CN(c2nc(=O)n(C)c3ccc(C#N)nc23)[C@@H](C)CN1C(c1ccc(F)cc1)c1ccc(C2CC2)cn1` (single isomer, unassigned) [Example 76]: the half-maximal inhibitory concentration (IC50) on human DGKα [1] was 79 nM; on human DGKζ it was 23 nM. The EC50 in test [3] was 180 nM.

As to `CCC(c1ccc(OC(F)(F)F)cc1F)N1C[C@H](C)N(c2nc(=O)n(C)c3ccc(C#N)nc23)C[C@H]1C` (single isomer, unassigned) [Example 153], the IC50 at human DGKα [1] amounted to 690 nM; at human DGKζ, 1980 nM. The EC50 in test [3] was 2310 nM.

As to `C[C@H]1CN(C(c2ccc(F)cc2)c2ccc(C(F)(F)F)cn2)[C@H](CO)CN1c1nc(=O)n(C)c2ccc(C#N)nc12` (single isomer, unassigned) [Example 182], the IC50 on human DGKα [1] came to 430 nM; on human DGKζ, 2030 nM. In addition, the EC50 in test [3] is 2530 nM.

With `CC[C@H]1CN(C(C)c2ccc(C(F)(F)F)nc2)[C@H](CC)CN1c1nc(=O)n(C)c2ccc(C#N)nc12` (single isomer, unassigned) [Example 44], the IC50 on human DGKα [1] came to 85 nM; at human DGKζ, 21 nM. In test [3], the EC50 is 260 nM.

In the case of `CC(c1ccc(C2CC2)cc1F)N1C[C@H](C)N(c2nc(=O)n(C)c3ccc(C#N)nc23)C[C@H]1C` (single isomer, unassigned) [Example 169], the half-maximal inhibitory concentration (IC50) at human DGKα [1] is 4620 nM; on human DGKζ it was 2180 nM. Besides, the EC50 in test [3] was determined as 1330 nM.

For the compound `COC[C@@H]1CN(c2nc(=O)n(C)c3ccc(C#N)nc23)[C@@H](C)CN1C(C)c1ccc(C(F)(F)F)cc1` (single isomer, unassigned) [Example 174], the IC50 worked out at 590 nM at human DGKα [1] and 140 nM on human DGKζ. Also, the EC50 in test [3] came to 140 nM.

Take `CC[C@H]1CN(C(C)c2ccc(OC(F)(F)F)cc2)[C@H](C)CN1c1nc(=O)n(C)c2ccc(C#N)nc12` (stereo partly drawn) [Example 123, 4-((2S,5R)-2-ethyl-5-methyl-4-(1-(4-(trifluoromethoxy)phenyl)ethyl)piperazin-1-yl)-1-methyl-2-oxo-1,2-dihydropyrido[3,2-d]pyrimidine-6-carbonitrile]: the IC50 was 1380 nM on human DGKα [1] and 1330 nM at human DGKζ. Further, the 50% effective concentration (EC50) in test [3] (Homo sapiens) is 2570 nM.

Turning to `C[C@@H]1CN(c2nc(=O)n(C)c3ccc(C#N)nc23)[C@@H](C)CN1C(c1ccc(OC(F)(F)F)cc1)c1cc(C2CC2)on1` (single isomer, unassigned) [Example 165], the IC50 at human DGKα [1] turned out to be 380 nM; at human DGKζ, 370 nM. Also, the half-maximal effective concentration (EC50) in test [3] worked out at 630 nM.

For the compound `CC[C@H]1CN(C(C)c2ccc(OC)cc2)[C@H](CC)CN1c1nc(=O)n(C)c2ccc(C#N)nc12` (single isomer, unassigned) [Example 17], the IC50 stood at 320 nM at human DGKα [1] and 2140 nM at human DGKζ. Besides, in test [3] (Homo sapiens), the 50% effective concentration (EC50) is 2890 nM.

The term IC50 denotes the midpoint of a concentration-inhibition curve. One may read the EC50 as the concentration giving half of the maximal effect.

For the origin of these results see US11584747B2, “Substituted pyridopyrimidinonyl compounds useful as T cell activators” (BRISTOL-MYERS SQUIBB COMPANY, priority 2019, dated 2023).
